Measured values published in US20080131907A1, “ASSAYS FOR DETECTING NATIVE-STATE PROTEINS AND IDENTIFYING COMPOUNDS THAT MODULATE THE STABILITY OF NATIVE-STATE PROTEINS” (FoldRx Pharmaceuticals, Inc., priority 2006, published 2008).
Several values for one entry are separate records, joined by “and”; a condition that tells them apart may be missing. Equal entries are not always repeated.

Tests used:
[1] = target: T1, tetrameric transthyretin (Homo sapiens, UniProt P02766); test: Immuno-turbidimetric assay 2: plasma + compound, urea, no cross-linking (dilution or immediate detection); details: for Stabilization of transthyretin tetramer (in words): 7.2 μM, urea for 3 days, Table 2; for Stabilization of transthyretin tetramer (in words) / Olympus Normalized / Beckman Normalized: human plasma; for Olympus Normalized / Beckman Normalized: 7.2 μM compound, 4.8 M urea; for Olympus Normalized: Olympus reagent; for Beckman Normalized: Beckman reagent
Procedure: In this second assay, the cross-linking step is replaced with a step of terminating denaturation (caused by the urea treatment) by dilution of the sample. Briefly, a 1 ml sample of human plasma was combined with either 1 μl of a test compound (Cmp. 1: 2-(2,6-dichloro-phenyl)-benzoxazole-6-carboxylic acid or Cmp. 2: 2-(3,5-dichloro-phenyl)-benzoxazole-6-carboxylic acid; see Published U.S. Application No. 20040152140) solubilized in DMSO or a control solution of DMSO, and the samples were incubated for 15 minutes at room temperature prior to addition of urea. The final concentration of the test compounds was 7.2 μM in DMSO. A solution of urea was added such that the final concentration of urea in the sample was 4.8 M. A 1 mL aliquot was removed immediately (no incubation (no-inc)) for dilution (see below) and the remaining 1.5 mL mixture was incubated for 3 days at room temperature (3 day) (FIG. 3). Immediately (for the no-inc) or following the three day incubation (for the 3 day samples), the samples were diluted 1:5 (four volumes diluent were added per one volume equivalent of sample). Potassium chloride (KCl) and sodium phosphate (NaPO4) were also added to the samples at final concentrations of 50 mM and 25 mM, respectively.
2 was also monitored using immuno-turbidimetric assay 2 (Example 2). Plasma samples (a pool from 16 individual donors) containing 4.6 μM transthyretin were treated with 4.6 μm, or 9.2 μm Cmp. 2, or DMSO as a negative control, for 15 minutes at room temperature. Following the incubation, urea was added to the samples resulting in a final urea concentration of 3.2 M (see FIG. 7). Aliquots were removed immediately (day 0) and after incubation at room temperature for 8, 13, 24, 32, and 48 hours. Immediate detection of transthyretin using the Bayer ADVIA prealbumin kit was performed as described by the manufacturer. For each concentration of Cmp. 2, the assay-determined transthyretin concentration at 8, 13, 24, 32, and 48 hours was divided by the assay-determined initial concentration at day 0 to yield the percent of tetramer remaining (FIG. 7).

[2] = target: T1, tetrameric transthyretin; test: Immuno-turbidimetric assay 1: plasma + compound, 4.8 M urea, glutaraldehyde cross-linking, Olympus OSR6175 reagent; details: for Normalized (mg/dL) transthyretin tetramer concentration: 7.2 μM compound, 40 mM glutaraldehyde
Procedure: Next, the immuno-turbidity assay was evaluated in human plasma samples containing transthyretin and in the presence and absence of a test compound 2-(2,6-dichloro-phenyl)-benzoxazole-6-carboxylic acid (a transthyretin stabilizing compound, see Published U.S. Application No. 20040152140). A 1 mL plasma sample was incubated with 1 μL of 2-(2,6-Dichloro-phenyl)-benzoxazole-6-carboxylic acid (solubilized in dimethyl sulfoxide (DMSO), or a control solution containing only DMSO, for 15 minutes at room temperature. The final test concentration of 2-(2,6-dichloro-phenyl)-benzoxazole-6-carboxylic acid (Cmp. 1) was 7.2 μM. Experimental (with compound) or control (only DMSO) samples were then each combined with 1.5 mL of 8 M urea to a final urea concentration of 4.8 M. A 1 mL aliquot was removed immediately (no incubation (no-inc)) for cross-linking and the remaining 1.5 mL mixture was incubated for 3 days at room temperature (3 day). Immediately for the no-inc 1 mL aliquot or following the 3 day incubation for the 3 day samples, 1 mL of the samples was cross-linked by adding 16 L of 25% (2.5 M) glutaraldehyde in water to a final concentration of 40 mM. The mixtures were incubated for 4 minutes at room temperature. The cross-linking reaction was stopped by the addition of 54 μL of 1.85 M freshly prepared sodium borohydride in 0.1 N sodium hydroxide, followed by a 5 minute incubation at room temperature. For analysis, the OSR6175 reagent was added to sample per manufacturer's instructions, and the turbidity, as a measure of the difference between incident and transmitted light, was calculated per manufacturer instruction.
To test the effect of different dosages of 2-(3,5-dichloro-phenyl)-benzoxazole-6-carboxylic acid (Cmp. 2) on transthyretin stabilization, plasma samples (a pool from 20 individual donors) containing 4.3 M transthyretin were treated with 2.2 μM, 4.3 μm, or 8.6 μm Cmp. 2, or DMSO as a negative control, for 15 minutes at room temperature. Following the incubation, the urea denaturant was added to the samples resulting in a final urea concentration of 4.8 M (see FIG. 6). As above, aliquots were removed immediately (day 0) and after incubation at room temperature for 1, 2, and 3 days. Cross-linking (glutaraldehyde) and detection of transthyretin using the Olympus OSR6175 reagent were performed as described under Example 1. For each concentration of Cmp. […]
Since the concentration of transthyretin fluctuates from day to day in an individual subject and can vary between different subjects (e.g., different patients), the efficacy of Cmp. […] Samples were then subjected to denaturation and cross-linking, and stabilized tetrameric transthyretin was measured as described above in Examples 1 and 3.

[3] = target: V30M transthyretin mutation, tetrameric transthyretin (Homo sapiens, UniProt P02766, V50M); test: Immuno-turbidimetric assay 1 on pooled plasma from familial amyloid polyneuropathy patients; format: biochemical; details: urea 24, 31 or 36, or 48 hours; 22 mg/dL transthyretin; FIG. 9
Procedure: The Y-axis represents the percentage of the initial (“Fraction of initial”) transthyretin tetramer concentration remaining in each sample following treatment with urea.
The samples were then subjected to denaturation for 24, 31 or 36, or 48 hours and then cross-linked (as above).

[4] = target: T1, tetrameric transthyretin; test: Western blotting method (urea, cross-linking, SDS-PAGE, anti-transthyretin immunoblot) of plasma samples; format: biochemical; set-up: human plasma samples containing transthyretin; from tissue; host or cells: human plasma (single samples or pools of donors); details: 7.2 μM, 3 day urea treatment, FIG. 4B
Text: The position of transthyretin tetramer on the immunoblot is indicated at the left of the immunoblot, and the time point at which the samples were collected for assay (0 or 3 days) are indicated above the immunoblot.

Row | SMILES | Stabilization of transthyretin tetramer (in words) [1] | Dose dependence of tetramer stabilization (percent of tetramer remaining) ([1]; 4.6 or 9.2 μM, 3.2 M urea, 8-48 hours, Bayer ADVIA prealbumin kit, pooled plasma, FIG. 7) | Olympus Normalized ([1]; Day 0) | Olympus Normalized ([1]; Day 3) [mg/dL] | Dose dependence of tetramer stabilization (percent of tetramer remaining) ([2]; 2.2, 4.3, 8.6 μM, 4.8 M urea, days 1, 2, 3, pooled plasma, FIG. 6) | Stabilization of tetrameric transthyretin in V30M patient plasma [3] | Beckman Normalized ([1]; Day 0) [mg/dL] | Beckman Normalized ([1]; Day 3) [mg/dL] | Stabilization of tetrameric transthyretin (in words) ([2]; 7.2 μM, three-day 4.8 M urea treatment, human plasma) | Normalized (mg/dL) transthyretin tetramer concentration ([2]; Day 0 (no incubation), 4.8 M urea, human plasma) [mg/dL] | Normalized (mg/dL) transthyretin tetramer concentration ([2]; Day 3 in 4.8 M urea, human plasma) [mg/dL] | Stabilization of tetrameric transthyretin by western blot (in words) [4]
1 | O=C(O)c1ccc2nc(-c3cc(Cl)cc(Cl)c3)oc2c1 [Cmp. 2] | significantly stabilized | more effective than lower concentrations | 22.12 mg/dL and 23.72 mg/dL | 13.59 | more effective than lower concentrations | stabilized in a dose-dependent manner |  |  |  |  |  | 
2 | O=C(O)c1ccc2nc(-c3c(Cl)cccc3Cl)oc2c1 [Cmp. 1] | almost completely stabilized |  | 22.12 mg/dL | 23.45 |  |  | 10.53 | 12.26 | nearly completely stabilized | 23.5 | 21.9 | almost completely stabilized
